Data as given in PMC9021956, “Screening and Identification of HBV Epitopes Restricted by Multiple Prevalent HLA-A Allotypes” (Frontiers in Immunology, 2022).
Read-outs that look alike come from different tables or passages of the source. Residues, ends and D or L forms follow the SMILES beside them.

Assays:
[1] = tested on: twelve prevalent HLA-A allotypes; test: Peptide competitive binding assay, whole panel; parameters: species or system human; conditions: high = IC50<5μM
Method: A set of fluoresce-labeled reference peptides (positive-control peptide) were synthesized with a purity of >99% by Sangon Biotech and stored at 4°C, such as FLPSDK(FITC)FPSV for A0201, A0203 and A0206 ([30]), YVNVNK(FITC)GLK for A1101 and A3303 ([31]), EYLVSK(FITC)GVW for A2402 ([32]), ATFQFK(FITC)VER for A3101, A1102 and A0301 ([33]), KLPDDFK(FITC)GCV for A0207 ([34]), YLEPAK(FITC)AKY for A0101 ([30]), and ASRELK(FITC)VSY for A3001 (identified in house). Then the competitive peptide binding assay was performed as described with minor modifications ([30], [35]). Briefly, the HMy2.CIR cell lines expressing the indicated HLA-A molecule were washed with acid buffer (0.131M citric acid and 0.061M sodium phosphate Na2HPO4, PH3.3, 0.22 μm filtered) for 1 min, and immediately neutralized by IMDM medium containing 0.5% BSA. After washing, the cells were seeded into 96-well U culture plate (1×10^5 cells/100 μL/well) with β2-m (1 μg/mL). […] In parallel, no peptide control well (cells alone) and positive control well (cells with FITC-labeled reference peptide) were also performed.
The plate was centrifuged at 600 rpm for 5 min at room temperature (RT). Cells were washed twice with 100 μL cold 0.5% BSA-PBS. Finally, cells were resuspended with 150 μL PBS and analyzed with flow cytometry. Sample % is the percentage of FITC^+ cells in the experiment well, while the background % is the percentage of FITC^+ cells in the no peptide control well, and the max % is the percentage of FITC^+ cells in the positive control well. Competitive binding (%) = [1-(sample % - background %)/(max % – background %)] × 100%. […] Binding affinity of unlabeled peptide with the indicated HLA-A molecule is assessed by IC50.
Subsequently, the unlabeled epitope peptides of HBV competed with fluorescently labeled reference peptides in the binding with HLA-A molecules onto transfected cell lines for 24 hours. Here, twelve prevalent HLA-A allotypes were tested with totally 62 HBV epitope peptides validated in house.

[2] = molecular target: T1, HLA-A0206 (Homo sapiens, UniProt P04439, D140Y/D185E/D98H/E176V/E277Q/F33Y/G131W/G231S/I119V/I121R/I166T/I218V/L300P/L318F/N151K/N90K/P208A/P217A/Q86G/Q94H/R138H/R169H/T345S); test: cell-based; assay type: binding; conditions: for inhibition at 5 µM / inhibition at 15 µM: HLA-A0206 HMy2.CIR cells, 24 hours, flow cytometry; for inhibition at 5 µM: competitor peptide 5μM, read-out: 5μM Inhibition (%); for inhibition at 15 µM: competitor peptide 15μM, read-out: 15μM Inhibition (%)
T1 construct: expressed in transfected cells; host or cells: HMy2.CIR
Summary of the method: (§1)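 HMy2.CIR cells stably transfected with each HLA-A allele were acid-stripped (citric acid/Na2HPO4, pH 3.3, 1 min), neutralized in IMDM with 0.5% BSA, then given β2-m (1 μg/mL) and unlabeled competitor plus the FITC reference peptide. FITC+ cells were measured by flow cytometry, and IC50 was taken from percent competition.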

[3] = molecular target: T2, HLA-A0201 (Homo sapiens, UniProt P04439, D140Y/D185E/D98H/E176V/E277Q/G131W/G231S/I119V/I121R/I166T/I218V/L300P/L318F/N151K/N90K/P208A/P217A/Q86G/Q94H/R138H/R169H/T345S); test: cell-based; assay type: binding; conditions: for inhibition at 5 µM / inhibition at 15 µM: HLA-A0201 HMy2.CIR cells, 24 hours, flow cytometry; for inhibition at 5 µM: competitor peptide 5μM, read-out: 5μM Inhibition (%); for inhibition at 15 µM: competitor peptide 15μM, read-out: 15μM Inhibition (%)
T2 construct: expressed in transfected cells; host or cells: HMy2.CIR
Summary of the method: as §1

[4] = molecular target: T3, HLA-A3303 (Homo sapiens, UniProt P04439, A270S/D185E/E176V/E277Q/E87N/F33T/G231S/H175R/I121M/I218V/I322F/K168Q/L300P/L318F/M331R/P217A/Q86R/Q94H/R138Q/T323A/T345S/T97I/V358M); test: cell-based; assay type: binding; conditions: for inhibition at 5 µM / inhibition at 15 µM: HLA-A3303 HMy2.CIR cells, 24 hours, flow cytometry; for inhibition at 5 µM: competitor peptide 5μM, read-out: 5μM Inhibition (%); for inhibition at 15 µM: competitor peptide 15μM, read-out: 15μM Inhibition (%)
T3 construct: expressed in transfected cells; host or cells: HMy2.CIR
Summary of the method: as §1

[5] = molecular target: T4, HLA-A0207 (Homo sapiens, UniProt P04439, D140Y/D185E/D98H/E176V/E277Q/G131W/G231S/I119V/I121R/I166T/I218V/L300P/L318F/N151K/N90K/P208A/P217A/Q86G/Q94H/R138H/R169H/T345S/Y123C); test: cell-based; assay type: binding; conditions: for inhibition at 5 µM / inhibition at 15 µM: HLA-A0207 HMy2.CIR cells, 24 hours, flow cytometry; for inhibition at 5 µM: competitor peptide 5μM, read-out: 5μM Inhibition (%); for inhibition at 15 µM: competitor peptide 15μM, read-out: 15μM Inhibition (%)
T4 construct: expressed in transfected cells; host or cells: HMy2.CIR
Summary of the method: as §1

[6] = molecular target: T5, HLA-A1101 (Homo sapiens, UniProt P04439, A114D/D185E/E176A/F33Y/L180Q/S129P/T187R); test: cell-based; assay type: binding; conditions: for inhibition at 5 µM: read-out: 5μM Inhibition (%); for inhibition at 15 µM: read-out: 15μM Inhibition (%)
T5 construct: expressed in transfected cells; host or cells: HMy2.CIR
Summary of the method: as §1

[7] = molecular target: HLA-A2402 (Homo sapiens, UniProt P04439, D101N/D140Y/D185E/E176V/E190D/F33S/G103R/G107R/I119L/I121M/I306V/K335N/L105A/L180Q/L300P/N151K/N90K/Q86E/Q94H/R106L/R138H/R89G/T104I/T345S/V100E/W191G/Y123F); test: cell-based; assay type: binding; conditions: for inhibition at 5 µM / inhibition at 15 µM: HLA-A2402 HMy2.CIR cells, 24 hours, flow cytometry; for inhibition at 5 µM: competitor peptide 5μM; for inhibition at 15 µM: competitor peptide 15μM
Summary of the method: as §1

[8] = molecular target: T6, HLA-A0203 (Homo sapiens, UniProt P04439, A173T/D140Y/D185E/D98H/E277Q/G131W/G231S/I119V/I121R/I166T/I218V/L180W/L300P/L318F/N151K/N90K/P208A/P217A/Q86G/Q94H/R138H/R169H/T345S); test: cell-based; assay type: binding; conditions: for inhibition at 5 µM / inhibition at 15 µM: HLA-A0203 HMy2.CIR cells, 24 hours, flow cytometry; for inhibition at 5 µM: competitor peptide 5μM; for inhibition at 15 µM: competitor peptide 15μM
T6 construct: expressed in transfected cells; host or cells: HMy2.CIR
Summary of the method: as §1

CC[C@H](C)[C@H](NC(=O)CNC(=O)[C@H](CC(C)C)NC(=O)[C@H](CO)NC(=O)[C@H](CC(C)C)NC(=O)[C@H](CC(C)C)NC(=O)[C@@H](N)Cc1ccccc1)C(=O)N[C@@H](Cc1c[nH]cn1)C(=O)N[C@@H](CC(C)C)C(=O)O [Epitope P10]
number of HLA-A allotypes bound with high affinity [1]: two | inhibition at 5 µM [2]: 21.5% | inhibition at 15 µM [2]: 43.2% | inhibition at 5 µM [3]: 81.7% | inhibition at 15 µM [3]: 71.6% | inhibition at 5 µM [4]: 60.1% | inhibition at 15 µM [4]: 66.1% | inhibition at 5 µM [5]: 27% | inhibition at 15 µM [5]: 31% | inhibition at 5 µM ([6]; HLA-A1101 HMy2.CIR cells, competitor peptide 5μM, 24 hours, flow cytometry): 7.2% | inhibition at 15 µM ([6]; HLA-A1101 HMy2.CIR cells, competitor peptide 15μM, 24 hours, flow cytometry): 8% | inhibition at 5 µM [7]: 19% | inhibition at 15 µM [7]: 17%

CC[C@H](C)[C@H](NC(=O)[C@H](Cc1c[nH]c2ccccc12)NC(=O)[C@@H](NC(=O)CNC(=O)[C@H](Cc1ccccc1)NC(=O)[C@H](CO)NC(=O)[C@@H](NC(=O)[C@H](CC(C)C)NC(=O)[C@@H](N)Cc1ccc(O)cc1)C(C)C)C(C)C)C(=O)O [Epitope P11]
number of HLA-A allotypes bound with high affinity [1]: two | IC50 [3]: < 5 µM | inhibition at 5 µM [3]: 81.2% | inhibition at 15 µM [3]: 96.2% | IC50 [8]: < 5 µM | inhibition at 5 µM [8]: 89.4% | inhibition at 15 µM [8]: 97.4% | IC50 [4]: > 15 µM | inhibition at 5 µM [4]: 10.2% | inhibition at 15 µM [4]: 4.63% | IC50 [6]: > 15 µM | inhibition at 5 µM ([6]; 24 h): 17.1% | inhibition at 15 µM ([6]; 24 h): 20% | Affinity [7]: inter | inhibition at 5 µM [7]: 41% | inhibition at 15 µM [7]: 52.5%

CC(C)C[C@H](NC(=O)[C@@H](N)Cc1ccccc1)C(=O)N1CCC[C@H]1C(=O)N[C@@H](CO)C(=O)N[C@@H](CC(=O)O)C(=O)N[C@@H](Cc1ccccc1)C(=O)N[C@@H](Cc1ccccc1)C(=O)N1CCC[C@H]1C(=O)N[C@@H](CO)C(=O)O [Epitope P67] (H-FLPSDFFPS-OH; N-terminus and C-terminus assumed)
number of HLA-A allotypes bound with high affinity [1]: three | IC50 [2]: < 5 µM | inhibition at 5 µM [2]: 95.7% | inhibition at 15 µM [2]: 100% | IC50 [3]: < 5 µM | inhibition at 5 µM [3]: 91.5% | inhibition at 15 µM [3]: 97.8% | IC50 [8]: < 5 µM | inhibition at 5 µM [8]: 86.3% | inhibition at 15 µM [8]: 91.5% | IC50 [4]: > 15 µM | inhibition at 5 µM [4]: 0% | inhibition at 15 µM [4]: 0% | IC50 [5]: > 15 µM | inhibition at 5 µM [5]: 42% | inhibition at 15 µM [5]: 48% | IC50 [7]: > 15 µM | inhibition at 5 µM [7]: 2% | inhibition at 15 µM [7]: 4.3%

CC(C)C[C@H](NC(=O)[C@@H](N)Cc1ccccc1)C(=O)N[C@@H](Cc1c[nH]c2ccccc12)C(=O)N[C@@H](CCC(=O)O)C(=O)N[C@@H](Cc1c[nH]c2ccccc12)C(=O)N[C@@H](C)C(=O)N[C@@H](CO)C(=O)N[C@H](C(=O)N[C@@H](CCCNC(=N)N)C(=O)O)C(C)C [Epitope P78] (H-FLWEWASVR-OH; N-terminus and C-terminus assumed)
number of HLA-A allotypes bound with high affinity [1]: two | IC50 [3]: < 5 µM | inhibition at 5 µM [3]: 79.7% | inhibition at 15 µM [3]: 97.3% | IC50 [4]: < 5 µM | inhibition at 5 µM [4]: 72.1% | inhibition at 15 µM [4]: 89.6% | IC50 [7]: > 15 µM | inhibition at 5 µM [7]: 1% | inhibition at 15 µM [7]: 9.1%
